Laboratory results published in patent publication US20190125869A1, “PULSED ELECTROMAGNETIC THERAPY FOR DIRECTING AGENTS TO CANCER CELLS” (MMTC, Inc., priority 2017, published 2019).

System: AT2 prostatic tumor of rats
Assay: Growth of implanted tumors after intravenous Taxol, with or without pulsed microwaves
Type: in vivo, Copenhagen rats
Protocol: Treatment times were 30 minutes.
One rat with four implanted tumors, two in each flank, was used. Taxol was injected intravenously at 5 mg/kg. The two lower (right and left) tumors were treated as described above with pulsed microwaves, beginning immediately after the injection. Tumor growth was monitored over 14 days.

With `CC(=O)O[C@H]1C(=O)[C@@]2(C)[C@H]([C@H](OC(=O)c3ccccc3)[C@]3(O)C[C@H](OC(=O)[C@H](O)[C@@H](NC(=O)c4ccccc4)c4ccccc4)C(C)=C1C3(C)C)[C@]1(OC(C)=O)CO[C@@H]1C[C@@H]2O` [Taxol] the tumor size (Taxol 5 mg/kg intravenously plus pulsed microwaves (two treated tumors), after 14 days) was “barely detectable”, the tumor size (Taxol 5 mg/kg intravenously plus pulsed microwaves (two treated tumors), at 5 days) was “almost disappeared” and the tumor growth (Taxol 5 mg/kg intravenously, non-pulsed control tumors in the same rat, after 14 days) was “continued to grow”. For the same compound, the tumor size (Taxol 5 mg/kg intravenously, non-pulsed control tumors in the same rat, at 5 days) was “remained large” and the remission of tumors (microwave pulsing combined with systemically administered Taxol, pilot study summary) was “remission of tumors could be obtained”.
